This note sets out measurements from US9694016B2 (Novartis AG, priority 2013, dated 2017).

pIC50: −log10 of the molar value.

Chain of b-Raf (V600E) (P15056 whole entry V600E): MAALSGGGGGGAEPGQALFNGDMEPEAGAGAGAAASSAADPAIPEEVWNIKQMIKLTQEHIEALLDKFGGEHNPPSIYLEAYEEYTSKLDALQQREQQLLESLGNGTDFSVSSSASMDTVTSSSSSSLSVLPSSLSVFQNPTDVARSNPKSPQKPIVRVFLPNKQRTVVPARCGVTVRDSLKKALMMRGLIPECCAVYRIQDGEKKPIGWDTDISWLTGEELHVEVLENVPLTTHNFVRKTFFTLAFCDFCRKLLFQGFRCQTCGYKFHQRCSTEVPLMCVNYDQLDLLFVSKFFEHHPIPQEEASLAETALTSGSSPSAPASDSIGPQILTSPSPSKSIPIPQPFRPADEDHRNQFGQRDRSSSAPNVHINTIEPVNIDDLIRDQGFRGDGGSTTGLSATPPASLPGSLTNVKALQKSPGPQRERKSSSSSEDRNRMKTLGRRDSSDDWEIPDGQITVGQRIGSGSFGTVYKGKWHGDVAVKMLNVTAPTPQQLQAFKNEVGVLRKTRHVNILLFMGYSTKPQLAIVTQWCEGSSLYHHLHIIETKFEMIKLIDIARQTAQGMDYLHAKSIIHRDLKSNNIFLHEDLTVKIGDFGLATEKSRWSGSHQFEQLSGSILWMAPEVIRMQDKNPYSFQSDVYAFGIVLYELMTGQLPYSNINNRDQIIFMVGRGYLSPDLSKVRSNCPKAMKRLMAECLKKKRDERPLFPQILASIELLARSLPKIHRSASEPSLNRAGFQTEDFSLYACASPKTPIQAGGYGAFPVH

The first test has as its target b-Raf (V600E) (Homo sapiens (Human), UniProt P15056, V600E). To be noted: read-out: b-Raf IC-50; AlphaScreen, 60 min pre-incubation, 3 hours reaction.
On to `CCn1cc(C(=O)Nc2ccc(C)c(-c3cc(N4CCOCC4)n(C)c(=O)c3)c2)cc(C(F)(F)F)c1=O` [Example 481, 1-ethyl-N-(4-methyl-3-(1-methyl-6-morpholino-2-oxo-1,2-dihydropyridin-4-yl)phenyl)-6-oxo-5-(trifluoromethyl)-1,6-dihydropyridine-3-carboxamide], for which the pIC50 is 8.92.
`Cc1ccc(C(=O)Nc2cccc(C(C)(C)C#N)c2)cc1-c1cc(N2CCOCC2)n(C)c(=O)c1` [Example 515, N-(3-(2-cyanopropan-2-yl)phenyl)-4-methyl-3-(1-methyl-6-morpholino-2-oxo-1,2-dihydropyridin-4-yl)benzamide]: the pIC50 was 8.35.
For `Cc1ccc(NC(=O)c2ccnc(C(F)(F)F)c2)cc1-c1cc(N2CCOCC2)nc(N2CC(O)C2)n1` [Example 773, N-(3-(2-(3-hydroxyazetidin-1-yl)-6-morpholinopyrimidin-4-yl)-4-methylphenyl)-2-(trifluoromethyl)isonicotinamide], the pIC50 was 8.77.
Consider `Cc1ccc(NC(=O)c2cnnc(C(C)(C)C#N)c2)cc1-c1cc(N2CCOCC2)nc(NCCO)n1` [Example 737, 6-(2-cyanopropan-2-yl)-N-(3-(2-((2-hydroxyethyl)amino)-6-morpholinopyrimidin-4-yl)-4-methylphenyl)pyridazine-4-carboxamide], for which the pIC50 is 7.75.
With `Cc1ccc(NC(=O)c2ccnc(C(C)(F)F)c2)cc1-c1cc(N2C3CCC2COC3)n(C)c(=O)c1` [Example 527, N-(3-(6-(3-oxa-8-azabicyclo[3.2.1]octan-8-yl)-1-methyl-2-oxo-1,2-dihydropyridin-4-yl)-4-methylphenyl)-2-(1,1-difluoroethyl)isonicotinamide], the pIC50 was 8.25.
On to `Cc1ncc(NC(=O)c2ccnc(C(C)(C)C#N)c2)cc1-c1cncc(N2CCOCC2)n1` [Example 532, 2-(2-cyanopropan-2-yl)-N-(6-methyl-5-(6-morpholinopyrazin-2-yl)pyridin-3-yl)isonicotinamide], for which the pIC50 was 8.11.
Same read-out and setting: the result for `CCOc1nnc(-c2cc(NC(=O)c3ccnc(C4(C#N)CC4)c3)ccc2C)cc1N1CCOCC1` [Example 568, 2-(1-cyanocyclopropyl)-N-(3-(6-ethoxy-5-morpholinopyridazin-3-yl)-4-methylphenyl)isonicotinamide] reads 9.15; that for `Cc1ncc(NC(=O)c2ccnc(C(F)(F)F)c2)cc1-c1cc(N2CCOCC2)n2nccc2n1` [Example 798, N-(6-methyl-5-(7-morpholinopyrazolo[1,5-a]pyrimidin-5-yl)pyridin-3-yl)-2-(trifluoromethyl)isonicotinamide], 8.96.
Turning to `CCOc1nnc(-c2cc(NC(=O)c3ccnc(C(C)(F)F)c3)ccc2C)cc1N1CCOCC1` [Example 565, 2-(1,1-difluoroethyl)-N-(3-(6-ethoxy-5-morpholinopyridazin-3-yl)-4-methylphenyl)isonicotinamide], the pIC50 was 8.89.
Regarding `Cc1ccc(NC(=O)c2ccnc(C3CC3)c2)cc1-c1cc(N2CCOCC2)n(C)c(=O)c1` [Example 477, 2-cyclopropyl-N-(4-methyl-3-(1-methyl-6-morpholino-2-oxo-1,2-dihydropyridin-4-yl)phenyl)isonicotinamide], the pIC50 is 9.40.
Same read-out and setting: as for `CCOc1nnc(-c2cc(NC(=O)c3ccnc(C4CC4)c3)cnc2C)cc1N1CCOCC1` [Example 612, 2-cyclopropyl-N-(5-(6-ethoxy-5-morpholinopyridazin-3-yl)-6-methylpyridin-3-yl)isonicotinamide], the figure is 8.74; as for `Cc1ncc(NC(=O)c2ccnc(C(C)(F)F)c2)cc1-c1cc(N2CCO[C@H](CO)C2)n(C)c(=O)c1` [Example 530, (S)-2-(1,1-difluoroethyl)-N-(6′-(2-(hydroxymethyl)morpholino)-1′,2-dimethyl-Z-oxo-1′,2′-dihydro-[3,4′-bipyridin]-5-yl)isonicotinamide], 7.29.

The same test, now with this note: read-out: b-Raf IC-50; AlphaScreen, 60 min pre-incubation, reaction 3 hours at room temperature.
On to `Cc1ccc(NC(=O)c2cc(C(C)(C)O)ccn2)cc1-c1cc(N2CCOCC2)c(=O)n(C)c1` [Example 906, 4-(2-hydroxypropan-2-yl)-N-(4-methyl-3-(1-methyl-5-morpholino-6-oxo-1,6-dihydropyridin-3-yl)phenyl)picolinamide], for which the pIC50 was 8.02.
Consider `Cc1ccc(NC(=O)c2cccc(C(F)(F)F)c2)cc1-c1cc(N2CCOCC2)nc(N2CC[C@@H](O)C2=O)c1` [Example 1065, (R)—N-(3-(2-(3-hydroxy-2-oxopyrrolidin-1-yl)-6-morpholinopyridin-4-yl)-4-methylphenyl)-3-(trifluoromethyl)benzamide], for which the pIC50 was 9.28.
Turning to `Cc1ncc(NC(=O)c2ccnc(C3CC3)c2)cc1-c1cc(N2CCOCC2)nc(N2CC(C)(O)C2)c1` [Example 1102, 2-cyclopropyl-N-(2′-(3-hydroxy-3-methylazetidin-1-yl)-2-methyl-6′-morpholino-[3,4′-bipyridin]-5-yl)isonicotinamide], the pIC50 is 8.35.
With `Cc1ccc(NC(=O)c2ccnc(C(C)(F)F)c2)cc1-c1cc(OCCO)nc(N2CCOCC2)c1` [Example 1159, 2-(1,1-difluoroethyl)-N-(3-(2-(2-hydroxyethoxy)-6-morpholinopyridin-4-yl)-4-methylphenyl)isonicotinamide], the pIC50 is 9.12.
`Cc1ncc(NC(=O)c2ccnc(C(C)C)c2)cc1-c1ccnc(N2CCOCC2)c1` [Example 1136, 2-isopropyl-N-(2-methyl-2′-morpholino-[3,4′-bipyridin]-5-yl)isonicotinamide]: the pIC50 is 8.30.
For `Cc1ccc(NC(=O)c2ccnc(C3CC3)c2)cc1-c1cc(N2CCOCC2)nc(N2CC(O)C2)c1` [Example 1068, 2-cyclopropyl-N-(3-(2-(3-hydroxyazetidin-1-yl)-6-morpholinopyridin-4-yl)-4-methylphenyl)isonicotinamide], the pIC50 was 9.14.
For the compound `Cc1ncc(NC(=O)c2cccc(-c3nnco3)c2)cc1-c1cc(N2CCOCC2)nc(N2CC(O)C2)c1` [Example 1092, N-(2′-(3-hydroxyazetidin-1-yl)-2-methyl-6′-morpholino-[3,4′-bipyridin]-5-yl)-3-(1,3,4-oxadiazol-2-yl)benzamide], the pIC50 was 7.46.
Turning to `Cc1ncc(NC(=O)c2ccnc(C(C)(C)C#N)c2)cc1-c1cc(NCCO)nc(N2CCOCC2)c1` [Example 1042, 2-(2-cyanopropan-2-yl)-N-(2′-((2-hydroxyethyl)amino)-2-methyl-6′-morpholino-[3,4′-bipyridin]-5-yl)isonicotinamide], the pIC50 is 7.39.
As to `Cc1ccc(NC(=O)c2ccnc(C(C)(C)C#N)c2)cc1-c1nc2c(c(N3CCOCC3)n1)S(=O)(=O)CC2` [Example 855, 2-(2-cyanopropan-2-yl)-N-(4-methyl-3-(4-morpholino-5,5-dioxido-6,7-dihydrothieno[3,2-d]pyrimidin-2-yl)phenyl)isonicotinamide], the pIC50 is 8.64.
`Cc1ccc(NC(=O)c2cccc(C(F)(F)F)c2)cc1-c1cc(NCC(C)(C)O)nc(N2CCOCC2)c1` [Example 1062, N-(3-(2-((2-hydroxy-2-methylpropyl)amino)-6-morpholinopyridin-4-yl)-4-methylphenyl)-3-(trifluoromethyl)benzamide]: the pIC50 was 9.01.
Turning to `Cc1ccc(NC(=O)c2cnnc(C(C)(C)C#N)c2)cc1-c1cc(NCCO)nc(N2CCOCC2)c1` [Example 1049, 6-(2-cyanopropan-2-yl)-N-(3-(2-((2-hydroxyethyl)amino)-6-morpholinopyridin-4-yl)-4-methylphenyl)pyridazine-4-carboxamide], the pIC50 was 8.11.
With `Cc1ccc(NC(=O)c2ccnc(C(C)(C)C#N)c2)cc1-c1cc(N2CCOCC2)nc(N2CCOCC2)c1` [Example 1113, 2-(2-cyanopropan-2-yl)-N-(3-(2,6-dimorpholinopyridin-4-yl)-4-methylphenyl)isonicotinamide], the pIC50 was 8.88.

Staying with this test, now noted: read-out: b-Raf IC-50; Table 2; AlphaScreen, 3 hours reaction.
With `Cc1ccc(NC(=O)c2cccc(C3(C#N)CC3)c2Cl)cc1-c1cc(N2CCOCC2)c(=O)n(C)c1` [Example 346, 2-chloro-3-(1-cyanocyclopropyl)-N-(4-methyl-3-(1-methyl-5-morpholino-6-oxo-1,6-dihydropyridin-3-yl)phenyl)benzamide], the pIC50 is 8.06.
On the same count and under the same terms, as for `Cc1ncc(NC(=O)c2cnnc(C(F)(F)F)c2)cc1-c1cnc(Cl)c(N2CCOCC2)c1` [Example 292, N-(6′-chloro-2-methyl-5′-morpholino-[3,3′-bipyridin]-5-yl)-6-(trifluoromethyl)pyridazine-4-carboxamide], the figure is 8.42; as for `Cc1ncc(NC(=O)c2ccnc(C(F)(F)F)c2)cc1-c1cnc(OC2CCOCC2)c(N2C3CCC2COC3)c1` [Example 278, N-(5′-(3-oxa-8-azabicyclo[3.2.1]octan-8-yl)-2-methyl-6′-((tetrahydro-2H-pyran-4-yl)oxy)-[3,3′-bipyridin]-5-yl)-2-(trifluoromethyl)isonicotinamide], 8.08; as for `Cc1ncc(NC(=O)c2cccc(C(F)(F)F)c2)cc1-c1cnc(OC2CNC2)c(N2CCOCC2)c1` [Example 325, N-(6′-(azetidin-3-yloxy)-2-methyl-5′-morpholino-[3,3′-bipyridin]-5-yl)-3-(trifluoromethyl)benzamide], 6.52.
With `Cn1cc(-c2cc(NC(=O)c3cccc(C(F)(F)F)c3)ccc2F)cc(N2CCOCC2)c1=O` [Example 410], the pIC50 is 8.70.
Take `COc1ncc(-c2cc(NC(=O)c3ccnc(C(C)(C)F)c3)cnc2C)cc1N1CCOCC1` [Example 281, N-(6′-methoxy-2-methyl-5′-morpholino-[3,3′-bipyridin]-5-yl)-2-(2-fluoropropan-2-yl)isonicotinamide]: the pIC50 was 8.20.
Consider `Cc1ccc(C(=O)Nc2cccc(C(F)(F)F)c2)cc1-c1cc(N2CCOCC2)c(=O)n(C)c1` [Example 137, 4-methyl-3-(1-methyl-5-morpholino-6-oxo-1,6-dihydropyridin-3-yl)-N-(3-(trifluoromethyl)phenyl)benzamide], for which the pIC50 is 8.15.
For the compound `CC(C)c1cc(C(=O)Nc2ccc(Cl)c(-c3cc(N4CCOCC4)c(=O)n(C)c3)c2)ccn1` [Example 421, N-(4-chloro-3-(1-methyl-5-morpholino-6-oxo-1,6-dihydropyridin-3-yl)phenyl)-2-isopropylisonicotinamide], the pIC50 is 9.00.
